Tested on: Meloidogyne incognita
Assay: Meloidogyne incognita test (MELGIN), gall formation on salad seedlings in sand
Format: in vivo
Details: 0% = galls equal to untreated control
Procedure: Meloidogyne incognita—Test (MELGIN)
To produce a suitable preparation of active compound, 1 part by weight of active compound is mixed with the stated amount of solvent, and the concentrate is diluted with emulsifier-containing water to the desired concentration.
Vessels are filled with sand, a solution of the active ingredient, a suspension containing eggs and larvae of Meloidogyne incognita and salad seeds. The salad seeds germinate and the seedlings grow. Galls develop on the roots.
After the specified period the nematicidal activity is determined on the basis of the percentage of gall formation. 100% means that no galls were found; 0% means that the number of galls found on the roots of the treated plants was equal to that in untreated control plants.

Compound	Gall-formation efficacy in % after 21 d (100% = no galls) (4 ppm)	Gall-formation efficacy in % after 21 d (100% = no galls) (0.125 ppm)
CNC(=O)c1cc(C#N)cc(C)c1NC(=O)c1cc(Br)nn1-c1ncccc1Cl [Cyazypyr, cyazypyr]	6%	
O=C(NCCc1ncc(C(F)(F)F)cc1Cl)c1ccccc1C(F)(F)F [Fluopyram, N-{2-[3-chloro-5-(trifluoromethyl)-2-pyridinyl]ethyl}-2-trifluoromethylbenzamide]		56%
